Results: patent US20240067668A1, “HETEROARYL DERIVATIVE COMPOUND AND USE THEREOF” (VORONOI INC., priority 2020, published 2024)

What was measured:
EGFR Del19/T790M/C797S = EGFR Del19/T790M/C797S (Homo sapiens, UniProt P00533, C797S/T790M, form not given); assay: Enzyme IC50, EGFR Del19/T790M/C797S; format: biochemical
[1] = test system: BaF3-EGFR (Del19/T790M/C797S) cells; assay: Inhibitory activity on Ba/F3 cell proliferation (CellTiter-Glo, 72 hours); format: cell-based; settings: Ba/F3 cells expressing EGFR Del19/T790M/C797S
Experimental: (§1) The following experiments were performed to evaluate the inhibitory activity of the compound represented by Chemical Formula 1 according to the present invention on the proliferation of Ba/F3 cells expressing EGFR mutants.
(§2) BaF3-EGFR (WT) and BaF3-EGFR (Del19/T790M/C797S) cells were seeded in a clear bottom white 96-well plate at a density of 3×10^3/100 μl/well, and then 0.5 μl/well of the culture medium, containing the compounds at 12 concentrations (0.00001-2 mM) serially diluted in 3 folds and the DMSO control, was added to a final concentration of 0.00005-10 μM, followed by culturing in a 37° C. CO2 incubator for 72 hours. After 72 hours, the plates treated with the compounds were taken out, treated with 100 μl/well of CellTiter-Glo® 2.0 Assay (Promega) solution, and mixed well. After mixing well at room temperature for about 10 minutes, […] was measured using a microplate reader. As to Data, GI50 (μM) values were calculated using GraphPad Prism 8.3.0 (GraphPad software Inc., San Diego) as percentages in proportion to vehicle-based treated cells. The result values were calculated as a cell growth rate (%) compared to the control group. A graph was created using the GraphPad Prism version 5.0 program, and GI50 (μM) values were calculated.

BaF3-EGFR (WT) cells = assay: as above; format: cell-based; settings: Ba/F3 cells expressing EGFR WT
Experimental: as §1, §2

Sequence of EGFR Del19/T790M/C797S (P00533 25-1210 T790M/C797S, form open): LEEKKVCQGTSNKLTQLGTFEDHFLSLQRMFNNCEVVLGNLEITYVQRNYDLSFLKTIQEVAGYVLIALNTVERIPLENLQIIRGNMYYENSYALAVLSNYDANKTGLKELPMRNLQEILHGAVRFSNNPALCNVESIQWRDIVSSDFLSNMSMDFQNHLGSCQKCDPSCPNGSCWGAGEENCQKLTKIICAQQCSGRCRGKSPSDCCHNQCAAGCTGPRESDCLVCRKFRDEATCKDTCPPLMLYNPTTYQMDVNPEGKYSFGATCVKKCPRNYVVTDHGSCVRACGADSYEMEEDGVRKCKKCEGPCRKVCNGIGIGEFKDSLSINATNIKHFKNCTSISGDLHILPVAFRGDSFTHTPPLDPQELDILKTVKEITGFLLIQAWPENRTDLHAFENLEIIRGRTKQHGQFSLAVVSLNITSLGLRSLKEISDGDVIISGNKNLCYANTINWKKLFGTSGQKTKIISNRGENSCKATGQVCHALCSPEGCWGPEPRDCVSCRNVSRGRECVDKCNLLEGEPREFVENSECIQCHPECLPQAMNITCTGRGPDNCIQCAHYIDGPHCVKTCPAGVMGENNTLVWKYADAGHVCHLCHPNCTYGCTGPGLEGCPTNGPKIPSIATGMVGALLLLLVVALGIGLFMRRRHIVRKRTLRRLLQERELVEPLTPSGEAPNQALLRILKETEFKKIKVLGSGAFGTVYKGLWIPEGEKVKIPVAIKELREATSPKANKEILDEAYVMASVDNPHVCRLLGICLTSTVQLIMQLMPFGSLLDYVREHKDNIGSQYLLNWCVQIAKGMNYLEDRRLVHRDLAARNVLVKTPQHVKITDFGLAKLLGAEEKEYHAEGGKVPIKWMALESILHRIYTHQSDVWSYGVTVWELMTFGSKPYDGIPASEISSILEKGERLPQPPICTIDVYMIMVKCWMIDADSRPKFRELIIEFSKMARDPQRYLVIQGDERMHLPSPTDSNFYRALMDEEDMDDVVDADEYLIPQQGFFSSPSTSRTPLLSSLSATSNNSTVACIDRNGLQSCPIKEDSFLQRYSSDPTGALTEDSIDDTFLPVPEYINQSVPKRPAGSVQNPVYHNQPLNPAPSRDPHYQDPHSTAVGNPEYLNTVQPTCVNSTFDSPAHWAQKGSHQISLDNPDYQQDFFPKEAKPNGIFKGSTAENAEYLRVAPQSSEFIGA

Structure (SMILES) | IC50 (EGFR Del19/T790M/C797S) [µM] | GI50 [1] [µM] | GI50 (BaF3-EGFR (WT) cells) [µM]
Cn1cc(-c2ccc(OCC(F)(F)F)c(Nc3nc(Nc4ccc5nccnc5c4P(C)(C)=O)c4cc[nH]c4n3)c2)cn1 [Example 5, dimethyl (6-((2-((5-(1-methyl-1H-pyrazol-4-yl)-2-(2,2,2-trifluoroethoxy)phenyl)amino)-7H-pyrrolo[2,3-d]pyrimidin-4-yl)amino)quinoxalin-5-yl)phosphine oxide] | 0.05 to 0.1 | > 0.1 | 0.05 to 0.1
COc1cc(N2CCN(C)CC2)c(-c2ccsc2)cc1Nc1nc(Nc2ccc3nccnc3c2P(C)(C)=O)c2cc[nH]c2n1 [Example 76, (6-((2-((2-methoxy-4-(4-methylpiperazin-1-yl)-5-(thiophen-3-yl)phenyl)amino)-7H-pyrrolo[2,3-d]pyrimidin-4-yl)amino)quinoxalin-5-yl)dimethyl-phosphine oxide] | ≤ 0.05 | > 0.1 | > 0.1
COc1cc(N2CCN(C)CC2)c(-c2ccoc2)cc1Nc1nc(Nc2ccc3nccnc3c2P(C)(C)=O)c2cc[nH]c2n1 [Example 75, (6-((2-((5-(furan-3-yl)-2-methoxy-4-(4-methylpiperazin-1-yl)phenyl)amino)-7H-pyrrolo[2,3-d]pyrimidin-4-yl)amino)quinoxalin-5-yl)dimethyl-phosphine oxide] | ≤ 0.05 | > 0.1 | > 0.1
COc1cc(N2CCN(C)CC2)c(-c2cnc3ccccc3c2)cc1Nc1nc(Nc2ccc3nccnc3c2P(C)(C)=O)c2cc[nH]c2n1 [Example 71, (6-((2-((2-methoxy-4-(4-methylpiperazin-1-yl)-5-(quinolin-3-yl)phenyl)amino)-7H-pyrrolo[2,3-d]pyrimidin-4-yl)amino)quinoxalin-5-yl)dimethyl-phosphine oxide] | ≤ 0.05 | > 0.1 | > 0.1
COc1cc(N2CCN(C)CC2)c(C2CC2)cc1Nc1nc(Nc2ccc3nccnc3c2P(C)(C)=O)c2cc[nH]c2n1 [Example 83, (6-((2-((5-cyclopropyl-2-methoxy-4-(4-methylpiperazin-1-yl)phenyl)amino)-7H-pyrrolo[2,3-d]pyrimidin-4-yl)amino)quinoxalin-5-yl)dimethyl-phosphine oxide] | ≤ 0.05 | > 0.1 | > 0.1
CCOc1ccc(C(F)(F)F)cc1Nc1nc(Nc2ccc3nccnc3c2P(C)(C)=O)c2cc[nH]c2n1 [Example 69, (6-((2-((2-ethoxy-5-(trifluoromethyl)phenyl)amino)-7H-pyrrolo[2,3-d]pyrimidin-4-yl)amino)quinoxalin-5-yl)dimethyl-phosphine oxide] | > 0.1 | > 0.1 | > 0.1
Cn1ncc(Nc2nc(Nc3ccc4nccnc4c3P(C)(C)=O)c3cc[nH]c3n2)c1Cl [Example 137, (6-((2-((5-chloro-1-methyl-1H-pyrazol-4-yl)amino)-7H-pyrrolo[2,3-d]pyrimidin-4-yl)amino)quinoxalin-5-yl)dimethyl-phosphine oxide] | ≤ 0.05 | > 0.1 | > 0.1
COc1cc(N2CCC(N3CCN(C4CC4)CC3)CC2)c(C)cc1Nc1nc(Nc2ccc3nccnc3c2P(C)(C)=O)c2cc[nH]c2n1 [Example 60, (6-((2-((4-(4-(4-cyclopropyl-piperazin-1-yl)piperidin-1-yl)-2-methoxy-5-methylphenyl)amino)-7H-pyrrolo[2,3-d]pyrimidin-4-yl)amino)quinoxalin-5-yl)dimethyl-phosphine oxide] | ≤ 0.05 | ≤ 0.05 | > 0.1
CN1CCN(C2CCN(c3c(-c4cnn(C)c4)cc(Nc4nc(Nc5ccc6nccnc6c5P(C)(C)=O)c5cc[nH]c5n4)c4c3CCO4)CC2)CC1 [Example 117, dimethyl (6-((2-((5-(1-methyl-1H-pyrazol-4-yl)-4-(4-(4-methylpiperazin-1-yl)piperidin-1-yl)-2,3-dihydrobenzo-furan-7-yl)amino)-7H-pyrrolo[2,3-d]pyrimidin-4-yl)amino)quinoxalin-5-yl)phosphine oxide] | ≤ 0.05 | ≤ 0.05 | > 0.1
COc1cc(N2CC3(COC3)C2)c(-c2cnn(C)c2)cc1Nc1nc(Nc2ccc3nccnc3c2P(C)(C)=O)c2cc[nH]c2n1 [Example 29, (6-((2-((2-methoxy-5-(1-methyl-1H-pyrazol-4-yl)-4-(2-oxa-6-azaspiro[3.3]heptan-6-yl)phenyl)amino)-7H-pyrrolo[2,3-d]pyrimidin-4-yl)amino)quinoxalin-5-yl)dimethyl-phosphine oxide] | ≤ 0.05 | > 0.1 | > 0.1
CN1CCN(C2CCN(c3ccc(Nc4nc(Nc5ccc6nccnc6c5P(C)(C)=O)c5cc[nH]c5n4)cc3)CC2)CC1 [Example 58, dimethyl (6-((2-((4-(4-(4-methylpiperazin-1-yl)piperidin-1-yl)phenyl)amino)-7H-pyrrolo[2,3-d]pyrimidin-4-yl)amino)quinoxalin-5-yl)phosphine oxide] |  | 0.05 to 0.1 | > 0.1
COc1cc(N2CCN(C(C)(C)CF)CC2)c(-c2cnn(C)c2)cc1Nc1nc(Nc2ccc3nccnc3c2P(C)(C)=O)c2cc[nH]c2n1 [Example 109, (6-((2-((4-(4-(1-fluoro-2-methylpropan-2-yl)piperazin-1-yl)-2-methoxy-5-(1-methyl-1H-pyrazol-4-yl)phenyl)amino)-7H-pyrrolo[2,3-d]pyrimidin-4-yl)amino)quinoxalin-5-yl)dimethyl-phosphine oxide] |  | ≤ 0.05 | > 0.1
COc1cc(N2CCN(C)CC2)c(-c2cnn(C)c2)cc1Nc1nc(Nc2ccc3nccnc3c2P(C)(C)=O)c2c(C(F)(F)F)c[nH]c2n1 [Example 53, (6-((2-((2-methoxy-5-(1-methyl-1H-pyrazol-4-yl)-4-(4-methyl-piperazin-1-yl)phenyl)amino)-5-(trifluoro-methyl)-7H-pyrrolo[2,3-d]pyrimidin-4-yl)amino)quinoxalin-5-yl)dimethyl-phosphine oxide] |  | > 0.1 | > 0.1

Second part, the molecule after the results:

IC50 (EGFR Del19/T790M/C797S) [µM] | GI50 [1] [µM] | GI50 (BaF3-EGFR (WT) cells) [µM] | Structure (SMILES)
≤ 0.05 | ≤ 0.05 | > 0.1 | COc1cc(N2CCC(N3CCN(C)CC3)CC2)c(Cl)cc1Nc1nc(Nc2ccc3nccnc3c2P(C)(C)=O)c2cc[nH]c2n1 [Example 56, (6-((2-((5-chloro-2-methoxy-4-(4-(4-methylpiperazin-1-yl)piperidin-1-yl)phenyl)amino)-7H-pyrrolo[2,3-d]pyrimidin-4-yl)amino)quinoxalin-5-yl)dimethyl-phosphine oxide]
≤ 0.05 | ≤ 0.05 | > 0.1 | COc1nc(N2CCN(C)CC2)c(-c2cnn(C)c2)cc1Nc1nc(Nc2ccc3nccnc3c2P(C)(C)=O)c2cc[nH]c2n1 [Example 44, (6-((2-((2-methoxy-5-(1-methyl-1H-pyrazol-4-yl)-6-(4-methyl-piperazin-1-yl)pyridin-3-yl)amino)-7H-pyrrolo[2,3-d]pyrimidin-4-yl)amino)quinoxalin-5-yl)dimethyl-phosphine oxide]
≤ 0.05 | ≤ 0.05 | > 0.1 | COc1cc(N2C[C@@H](C)O[C@@H](C)C2)c(-c2cnn(C)c2)cc1Nc1nc(Nc2ccc3nccnc3c2P(C)(C)=O)c2cc[nH]c2n1 [Example 23, (6-((2-((4-((2s, 6R)-2,6-dimethyl-morpholino)-2-methoxy-5-(1-methyl-1H-pyrazol-4-yl)phenyl)amino)-7H-pyrrolo[2,3-d]pyrimidin-4-yl)amino)quinoxalin-5-yl)dimethyl-phosphine oxide]
≤ 0.05 | ≤ 0.05 | > 0.1 | COc1cc(N2C[C@H]3COC[C@H]3C2)c(-c2cnn(C)c2)cc1Nc1nc(Nc2ccc3nccnc3c2P(C)(C)=O)c2cc[nH]c2n1 [Example 41, (6-((2-((2-methoxy-5-(1-methyl-1H-pyrazol-4-yl)-4-((3aR,6aS)-tetrahydro-1H-furo[3,4-c]pyrrole-5(3H)-yl)phenyl)amino)-7H-pyrrolo[2,3-d]pyrimidin-4-yl)amino)quinoxalin-5-yl)dimethyl-phosphine oxide]
≤ 0.05 | ≤ 0.05 | 0.05 to 0.1 | Cn1cc(-c2cc(Nc3nc(Nc4ccc5nccnc5c4P(C)(C)=O)c4cc[nH]c4n3)c3c(c2N2CCC(N4CCOCC4)CC2)CCO3)cn1 [Example 120, dimethyl (6-((2-((5-(1-methyl-1H-pyrazol-4-yl)-4-(4-morpholino-piperidin-1-yl)-2,3-dihydrobenzo-furan-7-yl)amino)-7H-pyrrolo[2,3-d]pyrimidin-4-yl)amino)quinoxalin-5-yl)phosphine oxide]
0.05 to 0.1 | ≤ 0.05 | > 0.1 | COc1cc(N2CCN(C(=O)C3(F)CC3)CC2)c(-c2cnn(C)c2)cc1Nc1nc(Nc2ccc3nccnc3c2P(C)(C)=O)c2cc[nH]c2n1 [Example 112, (4-(4-((4-((5-(dimethyl-phosphoryl)quinoxalin-6-yl)amino)-7H-pyrrolo[2,3-d]pyrimidin-2-yl)amino)-5-methoxy-2-(1-methyl-1H-pyrazol-4-yl)phenyl)piperazin-1-yl)(1-fluorocyclo-propyl) methanone]
